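These data come from cells grown in 96-well plates and exposed to compound for 48 hours at five concentrations. Abbreviation: GI50, concentration required for 50% inhibition of growth.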 The source made the active and inactive calls. Cut-off read from the data, not from the text of the source: active = GI50 up to about 1.1 µM and inactive = higher.
How the values were obtained:
Assay in all cases: growth of human tumour cells (NCI), 48 h
[1] = system: 786-0
[2] = system: A498
[3] = system: A549
[4] = system: ACHN
[5] = system: BT-549
[6] = system: CAKI-1
[7] = system: CCRF-CEM
[8] = system: COLO 205
[9] = system: DU-145
[10] = system: EKVX
[11] = system: HCC 2998
[12] = system: HCT-116
[13] = system: HCT-15
[14] = system: HL-60
[15] = system: HOP-62
[16] = system: HOP-92
[17] = system: HT-29
[18] = system: Hs-578T
[19] = system: IGROV-1
[20] = system: K562
[21] = system: KM12
[22] = system: LOX IMVI
[23] = system: M14
[24] = system: MCF7
[25] = system: MDA-MB-435
[26] = system: MDA-N
[27] = system: MOLT-4
[28] = system: Malme-3M
[29] = system: NCI-H226
[30] = system: NCI-H23
[31] = system: NCI-H460
[32] = system: NCI-H522
[33] = system: NCI/ADR-RES
[34] = system: OVCAR-3
[35] = system: OVCAR-4
[36] = system: OVCAR-5
[37] = system: OVCAR-8
[38] = system: PC-3
[39] = system: RPMI-8226
[40] = system: RXF 393
[41] = system: SF-268
[42] = system: SF-295
[43] = system: SF-539
[44] = system: SK-MEL-28
[45] = system: SK-MEL-2
[46] = system: SK-OV-3
[47] = system: SN12C
[48] = system: SNB-19
[49] = system: SNB-75
[50] = system: SR
[51] = system: SW-620
[52] = system: T47D
[53] = system: TK-10
[54] = system: U-251
[55] = system: UACC-257
[56] = system: UO-31
[57] = system: MDA-MB-231
[58] = system: SK-MEL-5
[59] = system: UACC-62

Measured: GI50

COC(=O)c1c(O)ccc2c1c1c(n2Cc2ccc(OC)cc2)C(=O)c2ccccc2C1=O
3.74 µM: [13]
active: [5] 0.0131 µM | [7] 0.128 µM | [14] 0.308 µM | [27] 0.139 µM | [39] 0.168 µM | [50] 0.251 µM
inactive: [1] 12 µM | [2] 20.5 µM | [3] 4.91 µM | [4] 2.62 µM | [6] 29.4 µM | [8] 1.84 µM | [9] 18.2 µM | [10] 35.3 µM | [11] 2.97 µM | [12] 6.3 µM | [15] 16.3 µM | [16] 10.5 µM | [17] 3.09 µM | [18] 13.9 µM | [19] 6.21 µM | [20] 3.28 µM | [21] 15.6 µM | [22] 5.85 µM | [23] 10.7 µM | [24] 4.49 µM | [25] 6.46 µM | [26] 12.5 µM | [28] 39.9 µM | [29] 10.4 µM | [30] 11 µM | [31] 3.75 µM | [32] 4.1 µM | [33] 7.21 µM | [34] 16.1 µM | [35] 12.3 µM | [36] 25.4 µM | [37] 2.4 µM | [38] 5.2 µM | [40] 10.7 µM | [41] 12.4 µM | [42] 14.2 µM | [43] 14.4 µM | [44] 17.9 µM | [45] 11.3 µM | [46] 15.6 µM | [47] 2.78 µM | [48] 22.5 µM | [49] 15.1 µM | [51] 18.6 µM | [52] 6.78 µM | [53] 45.7 µM | [54] 8.67 µM | [55] 26.3 µM | [56] 3.92 µM

O=C(O)c1ccccc1CC1Cc2cc3c(cc2C1)CCC3
inactive: [1] > 100 µM | [2] > 100 µM | [3] 95.1 µM | [4] > 100 µM | [5] > 100 µM | [7] > 100 µM | [8] > 100 µM | [9] > 100 µM | [10] > 100 µM | [11] > 100 µM | [12] > 100 µM | [14] > 100 µM | [15] > 100 µM | [17] > 100 µM | [18] > 100 µM | [19] > 100 µM | [20] > 100 µM | [21] > 100 µM | [22] > 100 µM | [23] > 100 µM | [24] > 100 µM | [57] > 100 µM | [25] > 100 µM | [26] > 100 µM | [27] > 100 µM | [28] > 100 µM | [29] > 100 µM | [30] 49.5 µM | [31] > 100 µM | [32] > 100 µM | [33] > 100 µM | [34] > 100 µM | [35] 80.5 µM | [36] > 100 µM | [37] > 100 µM | [39] 88.3 µM | [40] 89.1 µM | [41] > 100 µM | [42] > 100 µM | [43] > 100 µM | [44] > 100 µM | [45] > 100 µM | [58] > 100 µM | [46] > 100 µM | [47] > 100 µM | [48] > 100 µM | [49] > 100 µM | [50] > 100 µM | [51] > 100 µM | [52] 33 µM | [53] > 100 µM | [54] > 100 µM | [55] > 100 µM | [59] 92.3 µM | [56] > 100 µM
99.3 µM: [13]

CCCC[S+]([O-])CCC(N)P(=O)(O)O (stereo unspecified)
inactive: [1] > 100 µM | [3] > 100 µM | [4] > 100 µM | [5] > 100 µM | [6] > 100 µM | [7] > 100 µM | [8] > 100 µM | [9] > 100 µM | [10] > 100 µM | [12] > 100 µM | [14] > 100 µM | [15] > 100 µM | [16] > 100 µM | [17] > 100 µM | [18] > 100 µM | [19] > 100 µM | [20] > 100 µM | [21] > 100 µM | [22] > 100 µM | [23] > 100 µM | [24] > 100 µM | [25] > 100 µM | [26] > 100 µM | [27] > 100 µM | [28] > 100 µM | [29] > 100 µM | [30] > 100 µM | [31] > 100 µM | [32] > 100 µM | [33] > 100 µM | [34] > 100 µM | [35] > 100 µM | [36] > 100 µM | [37] > 100 µM | [38] > 100 µM | [39] > 100 µM | [41] > 100 µM | [42] > 100 µM | [44] > 100 µM | [45] > 100 µM | [58] > 100 µM | [46] > 100 µM | [47] > 100 µM | [48] > 100 µM | [49] > 100 µM | [50] > 100 µM | [51] > 100 µM | [52] > 100 µM | [53] > 100 µM | [54] > 100 µM | [55] > 100 µM | [59] > 100 µM | [56] > 100 µM
> 100 µM: [13]

— ChEMBL document CHEMBL1201862, “PubChem BioAssay data set” (2004)
